± gives the standard deviation of the reports.
Structure (SMILES)	glass transition temperature [°C]
*Oc1ccc(NC(=O)c2cccc(C(=O)Nc3ccc(Oc4ccc(C(C)(C)c5cccc(C(C)(C)c6ccc(*)cc6)c5)cc4)cc3)c2)cc1 (repeat unit)	180.00
*Oc1ccc(NC(=O)c2cc(C(=O)Nc3ccc(Oc4ccc(C5(c6ccc(*)cc6)CC6CCC5C6)cc4)cc3)cc(C(C)(C)C)c2)cc1 (repeat unit)	272.00
*CC(*)(C)C(=O)OCCCC1CCCCC1 (repeat unit)	60.00
*CCCCCCOC(=O)C(C(=O)OCCCCCCOc1ccc(-n2on2-c2ccc(O*)cc2)cc1)c1ccccc1 (repeat unit)	23.00
*c1ccc(Sc2cc3c(cc2Sc2ccc(N4C(=O)C5C6C=CC(C7C(=O)N(*)C(=O)C67)C5C4=O)cc2)C(=O)N(CCc2ccccc2)C3=O)cc1 (repeat unit)	258.00
*CC(*)(C)C(=O)OCc1ccc2c(c1)OCCOCCOCCOCCO2 (repeat unit)	38.00
*CCCc1ccc(-c2c(-c3ccccc3)cc(-c3cccc(-c4cc(-c5ccccc5)c(-c5ccc(*)cc5)c(-c5ccccc5)c4-c4ccccc4)c3)c(-c3ccccc3)c2-c2ccccc2)cc1 (repeat unit)	240.00
*CCCCCCCCCCOc1ccc(/C=C2\CC/C(=C\c3ccc(OCCCCCCCCCCOP(=O)(O*)OCC)c(OC)c3)C2=O)cc1OC (repeat unit)	47.00
*Oc1ccc(S(=O)(=O)c2ccc(Oc3c(C)cc(-c4cc(C)c(*)c(C)c4)cc3C)cc2)cc1 (repeat unit)	280.20
*Oc1ccc(C(c2ccc(OC(*)=O)cc2)C2CC3CC2C2C4CCC(C4)C32)cc1 (repeat unit)	253.00
*OC(C)CCCCC(*)=O (repeat unit)	-40.00
*/N=N/c1ccc(NC(=O)CCC(=O)Nc2ccc(*)cc2)cc1 (repeat unit)	220.00
*CC(*)(C)C(=O)OCCCCCCCCCCn1c2ccccc2c2cc(/C=C(\C#N)c3ccc([N+](=O)[O-])cc3)ccc21 (repeat unit)	40.00
*CC(COC(=O)c1ccc(N2C(=O)C3C4C=CC(C4)C3C2=O)cc1)O* (repeat unit)	62.50
*CC(*)(C#N)C(=O)OCCCCCC (repeat unit) [Poly(hexyl cyanoacrylate)]	85.92 ± 0.1
*Nc1cc(NC(=O)c2ccc(C(*)=O)cc2)cc(C(=O)Oc2cccc3ccccc23)c1 (repeat unit)	192.00
*Nc1cc(NC(=O)c2cc(OCCN(C)c3ccc([N+](=O)[O-])cc3)cc(C(*)=O)c2)cc(C(=O)OC2CC(C)CCC2C(C)C)c1 (repeat unit)	193.00
*C(=O)Nc1ccc(NC(=O)c2ccc3c(c2)C(=O)N(c2ccc(Oc4cccc5c(N6C(=O)c7ccc(*)cc7C6=O)cccc45)cc2)C3=O)cc1 (repeat unit)	307.00
*Oc1ccc(CC(NC(=O)CCc2ccc(OC(=O)COCC(*)=O)cc2)C(=O)OC(C)C)cc1 (repeat unit)	80.00
*Oc1ccc(Oc2ccc(NC(=O)c3cc(NC(=O)c4ccc(OC(C)=O)cc4)cc(C(=O)Nc4ccc(*)cc4)c3)cc2)cc1 (repeat unit)	251.00
*c1ccc(-c2ccc3c(c2)C(CCCCCC)(CCCCCC)c2cc(*)ccc2-3)cc1 (repeat unit)	106.20
*Oc1ccc(/N=C/c2ccc(N(c3ccccc3)c3ccc(/C=N/c4ccc(*)cc4)cc3)cc2)cc1 (repeat unit)	162.00

Structure (SMILES)	glass transition temperature [°C]
*O[Si](*)(C)CCCCCCCCCCC(=O)Oc1ccc(C(=O)Oc2ccc(OC(=O)c3ccc(OCC(C)CC)cc3)cc2)cc1 (repeat unit)	28.50
*OC1CCC(OC(=O)CCCCC(*)=O)CC1 (repeat unit)	77.80
*Cc1cccc(CNC(=O)c2cc(C(=O)N*)cc(C(C)(C)C)c2)c1 (repeat unit)	192.00
*Oc1ccc(OC(=O)c2ccc(C(*)=O)cc2Oc2ccc(Br)cc2)cc1 (repeat unit)	108.00
*CC(*)c1ccc(C(=O)c2ccc(C)cc2)cc1 (repeat unit) [Poly(4-p-toluoylstyrene)]	98.92 ± 0.1
*CC(CO*)(CS(=O)(=O)C(C)C)CS(=O)(=O)C(C)C (repeat unit)	91.00
*c1ccc(-c2ccc(-c3ccc(-c4ccc(-c5cc(-c6ccccc6)c6cc(Oc7ccc8nc(*)cc(-c9ccccc9)c8c7)ccc6n5)cc4)cc3)cc2)cc1 (repeat unit)	310.00
*c1ccc2c(c1)C(=O)N(c1ccc(Sc3ccc(Sc4ccc(N5C(=O)c6ccc(C(*)(C(F)(F)F)C(F)(F)F)cc6C5=O)cc4)cc3)cc1)C2=O (repeat unit)	257.00
*CCOC(=O)c1ccc(O*)cc1 (repeat unit)	84.00
*Oc1ccc(C2(c3ccc(OC(=O)c4cccc(C(*)=O)c4)c(C)c3)c3ccccc3-c3ccccc32)cc1C (repeat unit)	287.00
*Oc1cccc(Oc2ccc(C(=O)Oc3cccc(OC(=O)c4ccc(*)cc4)c3)cc2)c1 (repeat unit)	131.00
*Oc1cc(CCCCCCCCCCC)cc(OC(=O)c2cccc(C(*)=O)c2)c1 (repeat unit)	34.50
*c1c(C)cc(Cc2cc(C)c(N3C(=O)c4ccc(Oc5ccc(C(C)(C)c6ccc(Oc7ccc8c(c7)C(=O)N(*)C8=O)cc6)cc5)cc4C3=O)c(C)c2)cc1C (repeat unit)	247.00
*CC(*)C(=O)OC1CC2CCC1(C)C2(C)C (repeat unit)	100.00
*CCN(CCOC(=O)CCC#CC#CCCC(=O)O*)c1ccc([N+](=O)[O-])cc1 (repeat unit)	30.00
*c1ccc2c(c1)C(=O)N(c1cccc(C(=O)Nc3ccc(Oc4ccccc4Oc4ccc(NC(=O)c5cccc(N6C(=O)c7ccc(C(*)(C(F)(F)F)C(F)(F)F)cc7C6=O)c5)cc4)cc3)c1)C2=O (repeat unit)	265.00
*/C=C(\C#N)C(=O)OCCCCCCOC(=O)/C(C#N)=C/c1ccc2c(c1)c1cc(*)ccc1n2CCCCCCCCCCCCCC (repeat unit)	53.00
*CC(*)c1ccc([CH]([Sn]([CH3])([CH3])[CH3])[Sn]([CH3])([CH3])[CH3])cc1 (repeat unit)	140.00
*c1cccc(C(=O)c2cccc(-n3c(=O)c4cc5c(=O)n(*)c(=O)c5cc4c3=O)c2)c1 (repeat unit)	321.00
*CCCCCCCCCC(=O)N* (repeat unit) [Poly(decano-10-lactam)]	42.42 ± 0.8
*Nc1cc(NC(=O)c2cc(OCCN(C)c3ccc([N+](=O)[O-])cc3)cc(C(*)=O)c2)cc(C(=O)OC)c1 (repeat unit)	177.00
*OC(COC(=O)c1ccccc1C(*)=O)COc1ccc(/N=N/c2ccc(C#N)cc2)cc1 (repeat unit)	105.00

Structure (SMILES)	glass transition temperature [°C]
*c1ccc2c(c1)C(=O)N(c1ccc(Oc3cccc(-c4cc(-c5ccccc5)cc(-c5cccc(Oc6ccc(N7C(=O)c8ccc(C(*)(C(F)(F)F)C(F)(F)F)cc8C7=O)cc6)c5)n4)c3)cc1)C2=O (repeat unit)	180.00
*CCCCOC(=O)CCCCCNC(=O)CCCCC(=O)NCCCCCC(=O)O* (repeat unit)	-15.00
*Nc1ccc(C(c2ccc(NC(=O)c3ccc(-c4ccc(C(*)=O)cc4)cc3)cc2)(P2(=O)Oc3ccccc3-c3ccccc32)P2(=O)Oc3ccccc3-c3ccccc32)cc1 (repeat unit)	251.00
*Oc1ccc(NC(=O)c2ccc([Si](C)(C)c3ccc(C(*)=O)cc3)cc2)cc1 (repeat unit)	220.00
*c1ccc(Sc2cc3c(cc2Sc2ccc(N4C(=O)c5ccc(Oc6ccc7c(c6)C(=O)N(*)C7=O)cc5C4=O)cc2)C(=O)N(CCCCCCCCCCCCCCCC)C3=O)cc1 (repeat unit)	156.00
*c1ccc(-c2ccc(-c3cc(CCCCCCCC)c(-c4ccc(-c5sc(*)cc5CCCCCCCC)cc4)s3)cc2)cc1 (repeat unit)	0.60
*C(=O)Oc1ccc(C2(c3ccc(OC(=O)c4ccc5c(c4)C(=O)N(c4ccc(-c6ccc(N7C(=O)c8ccc(*)cc8C7=O)cc6C)c(C)c4)C5=O)cc3)C3CC4CC(C3)CC2C4)cc1 (repeat unit)	222.00
*CC(*)(CC(=O)OC)C(=O)OC12CC3CC(CC(C3)C1)C2 (repeat unit)	197.00
*CC(C)(C)C1C(=O)N(C(C)C)C(=O)C1* (repeat unit)	145.00
*C(=O)Nc1ccc(-c2ccc(NC(=O)N3CC(C)N(*)CC3C)cc2)cc1 (repeat unit)	250.00
*Oc1ccc(C(=O)CNc2ccc(S(=O)(=O)c3ccc(NCC(=O)c4ccc(*)cc4)cc3)cc2)cc1 (repeat unit)	247.00
*CCCOc1ccc(OCCCc2nnc(-c3ccc(-c4nnc(*)o4)cc3)o2)c(C)c1 (repeat unit)	112.00
*c1ccc(Cc2ccc(N3C(=O)C(Cl)=C(Oc4ccc(C(C)(C)c5ccc(OC6=C(Cl)C(=O)N(*)C6=O)cc5)cc4)C3=O)cc2)cc1 (repeat unit)	172.00
*CC(*)C(=O)OCCCCCCn1c2ccccc2c2ccccc21 (repeat unit)	48.00
*c1ncnc(N(CCCCN(*)c2ccccc2)c2ccccc2)n1 (repeat unit)	91.00
*c1[nH]c(*)c(OC)c1OC (repeat unit)	-26.00
*CCCCCCCCc1nc2cc(NC(=O)CCCCC(=O)Nc3ccc4oc(*)nc4c3)ccc2o1 (repeat unit)	92.00
*c1ccc(Oc2ccc(-c3nc4cc(Oc5ccc(NC(=O)c6cc(C(=O)Nc7ccc(Oc8ccc9nc(-c%10ccc([N+](=O)[O-])cc%10)c(*)nc9c8)cc7)cc(N7C(=O)c8ccccc8C7=O)c6)cc5)ccc4nc3-c3ccc([N+](=O)[O-])cc3)cc2)cc1 (repeat unit)	305.00
*CCCCOC(=O)Nc1ccc(C)c(NC(=O)O*)c1 (repeat unit)	42.00
*c1ccc(NC(=O)c2ccc(C(=O)Nc3ccc(-c4nnc(*)o4)cc3)c(Oc3ccccc3)c2)cc1 (repeat unit)	272.00
